According to US7772265B2, “2-oxadiazolechromone derivatives” (Merck Patent GmbH, priority 2002, dated 2010):

Key:
PKB = PKB (Homo sapiens, UniProt P31749); test: PKB inhibition (comparative measurement); assay type: biochemical; settings: read-out: IC50 PKB inhibitor
Tie2 = Tie2 (Homo sapiens, UniProt Q02763); test: Tie2 inhibition; assay type: biochemical; settings: read-out: IC50 Tie2 inhibitor
Sequence of Tie2 (Q02763 23-1124, species assumed): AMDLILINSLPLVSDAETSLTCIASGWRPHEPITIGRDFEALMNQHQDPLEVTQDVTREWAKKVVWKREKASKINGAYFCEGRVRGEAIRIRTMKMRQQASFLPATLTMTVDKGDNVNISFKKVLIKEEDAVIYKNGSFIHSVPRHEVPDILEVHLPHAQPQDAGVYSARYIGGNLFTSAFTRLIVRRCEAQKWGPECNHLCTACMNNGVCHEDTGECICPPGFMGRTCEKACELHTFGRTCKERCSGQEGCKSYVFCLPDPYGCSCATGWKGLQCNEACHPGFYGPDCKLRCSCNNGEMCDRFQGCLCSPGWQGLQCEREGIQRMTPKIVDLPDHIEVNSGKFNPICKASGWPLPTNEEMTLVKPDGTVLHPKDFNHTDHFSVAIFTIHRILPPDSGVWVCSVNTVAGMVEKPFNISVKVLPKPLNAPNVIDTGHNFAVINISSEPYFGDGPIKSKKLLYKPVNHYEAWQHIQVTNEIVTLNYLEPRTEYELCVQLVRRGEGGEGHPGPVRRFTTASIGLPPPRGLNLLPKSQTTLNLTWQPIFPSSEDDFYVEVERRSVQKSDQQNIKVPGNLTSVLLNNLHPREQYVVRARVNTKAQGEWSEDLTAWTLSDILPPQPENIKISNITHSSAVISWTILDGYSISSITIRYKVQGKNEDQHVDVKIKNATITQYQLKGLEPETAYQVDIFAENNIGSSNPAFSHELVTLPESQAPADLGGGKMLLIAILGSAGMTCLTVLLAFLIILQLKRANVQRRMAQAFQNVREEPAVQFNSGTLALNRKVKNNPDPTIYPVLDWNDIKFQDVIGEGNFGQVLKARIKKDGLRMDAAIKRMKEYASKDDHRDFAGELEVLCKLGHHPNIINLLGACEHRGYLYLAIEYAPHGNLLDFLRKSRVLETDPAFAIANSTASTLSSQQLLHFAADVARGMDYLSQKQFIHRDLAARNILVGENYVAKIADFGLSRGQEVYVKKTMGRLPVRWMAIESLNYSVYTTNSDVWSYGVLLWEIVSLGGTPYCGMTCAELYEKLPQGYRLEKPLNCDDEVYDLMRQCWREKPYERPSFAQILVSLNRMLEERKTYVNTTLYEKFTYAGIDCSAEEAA

Sequence of PKB (P31749 whole entry, species assumed): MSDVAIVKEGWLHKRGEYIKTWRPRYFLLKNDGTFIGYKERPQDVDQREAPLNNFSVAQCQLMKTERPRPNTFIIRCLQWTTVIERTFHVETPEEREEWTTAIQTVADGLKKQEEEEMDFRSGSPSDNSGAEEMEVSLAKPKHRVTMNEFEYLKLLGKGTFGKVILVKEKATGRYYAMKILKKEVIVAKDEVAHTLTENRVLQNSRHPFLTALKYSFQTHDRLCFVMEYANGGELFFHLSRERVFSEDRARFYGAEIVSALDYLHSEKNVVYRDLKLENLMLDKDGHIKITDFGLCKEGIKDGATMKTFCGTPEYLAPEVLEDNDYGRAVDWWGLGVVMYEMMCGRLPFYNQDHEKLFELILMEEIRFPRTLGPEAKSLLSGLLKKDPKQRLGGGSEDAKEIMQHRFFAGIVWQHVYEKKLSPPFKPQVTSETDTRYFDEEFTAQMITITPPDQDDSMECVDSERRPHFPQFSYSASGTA

- IC50 (PKB): > 30 µM
- IC50 (Tie2): ≥ 10 µM
Structure (SMILES): CC(C)(C)c1ccc(-c2noc(-c3cc(=O)c4cc(O)ccc4o3)n2)cc1 [6-hydroxy-2-[3-(4-tert-butylphenyl)-1,2,4-oxadiazol-5-yl]-chromone]
